Experimental data published in patent publication US7687522B2, “Substituted pyridines and pyrimidines and their use in treatment of cancer” (Amgen Inc., priority 2006, dated 2010).

What follows are compounds tested against T1, c-Met (Homo sapiens, UniProt P08581) (assay: c-Met receptor assay (HTRF kinase assay with GST-cMet (P) enzyme, gastrin substrate)).
T1 construct: A PCR product covering residues 1058-1365 of c-Met (c-Met kinase domain) is generated; made in house; host or cells: baculovirus-infected (insect) cells
T1 sequence (P08581 1058-1365): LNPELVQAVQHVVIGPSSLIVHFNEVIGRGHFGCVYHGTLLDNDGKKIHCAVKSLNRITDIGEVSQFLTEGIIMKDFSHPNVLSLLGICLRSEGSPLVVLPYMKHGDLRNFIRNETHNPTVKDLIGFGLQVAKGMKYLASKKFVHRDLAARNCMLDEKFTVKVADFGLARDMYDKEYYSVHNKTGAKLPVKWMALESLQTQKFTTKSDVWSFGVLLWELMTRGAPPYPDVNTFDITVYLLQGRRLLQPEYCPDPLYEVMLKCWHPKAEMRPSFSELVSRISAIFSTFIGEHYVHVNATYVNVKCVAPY
Format: biochemical
Procedure: A PCR product covering residues 1058-1365 of c-Met (c-Met kinase domain) is generated as described in WO 06/116,713 the entirety of which is incorporated herein by reference.
Baculovirus cells are broken in 5× (volume/weight) of Lysis Buffer (50 mM HEPES, pH 8.0, 0.25 M NaCl, 5 mM mercaptoethanol, 10% glycerol plus Complete Protease Inhibitors (Roche (#10019600), 1 tablet per 50 mL buffer). The lysed cell suspension is centrifuged at 100,000×g (29,300 rpm) in a Beckman ultracentrifuge Ti45 rotor for 1 h. The supernatant is incubated with 10 ml of Glutathione Sepharose 4B from Amersham Biosciences (#27-4574-01). Incubation is carried out overnight in a cold room (approximately 8° C.). The resin and supernatant is poured into an appropriately sized disposable column and the flow through supernatant was collected. The resin is washed with 10 column volumes (100 mL) of Lysis Buffer. The GST-cMET is eluted with 45 mL of 10 mM Glutathione (Sigma #G-4251) in Lysis Buffer. The elution is collected as 15 mL fractions. Aliquots of the elution fractions are run on SDS PAGE (12% Tris Glycine gel, Invitrogen, #EC6005BOX). The gel is stained with 0.25% Coomassie Blue stain. Fractions with GST-cMET are concentrated with a Vivaspin 20 mL Concentrator (#VS2002; […]) to a final volume less than 2.0 ml. The concentrated GST-cMET solution is applied to a Superdex 75 16/60 column (Amersham Biosciences # 17-1068-01) equilibrated with 25 mM Tris, pH 7.5, 100 mM NaCl, 10 mM mercaptoethanol, 10% glycerol. The GST-cMET is eluted with an isocratic run of the above buffer, with the eluent collected in 1.0 mL fractions. Fractions with significant OD280 readings are run on another 12% Tris Glycine gel. The peak tubes with GST-cMET are pooled and the OD280 is read with the column buffer listed above as the blank buffer.
Phosphorylation of the purified GST-cMET is performed by incubating the protein for 3 h at RT with the following:
After incubation, the solution is concentrated in a Vivaspin 20 mL Concentrator to a volume less than 2.00 mL. The solution is applied to the same Superdex 75 16/60 column used above after re-equilibration. The GST-cMET is eluted as described above. The elution fractions corresponding to the first eluted peak on the chromatogram are run on a 12% Tris Glycine gel, as above, to identify the fractions with GST-cMET. Fractions are pooled and the OD280 is read with the column buffer used as the blank.
A Kinase reaction Buffer is prepared as follows:
When the assay is carried out, freshly add:
The HTRF buffer contains: 50 mM Tris-HCl (pH 7.5), 100 mM NaCl, 0.1% BSA, 0.05% Tween 20.5 mM EDTA Fresh add SA-APC (PJ25S Phycolink Streptavidin-Allophycocyanin Conjugate, Prozyme Inc.) and Eu-PT66 (Eu-W1024 labeled anti-phosphorotyrosine antibody PT66, AD0069, Lot 168465, Perkin-Elmer Inc.) to reach the final concentration: • 0.1 nM final Eu-PT66 • 11 nM final SA-APC Methods: 1. Dilute GST-cMet (P) enzyme in kinase buffer as follows: Prepare 8 nM GST-cMet (P) working solution (7.32 μM to 8 nM, 915 X, 10 μL to 9.15 mL). In a 96 well clear plate [Costar # 3365] add 100 μL in eleven columns, in one column add 100 μL kinase reaction buffer alone. 2. Assay plate preparation: Use Biomek FX to transfer 10 μL 8 nM GST-cMet (P) enzyme, 48.4 μL kinase reaction buffer, 1.6 μL compound (in DMSO) (Start concentration at 10 mM, 1 mM and 0.1 mM, sequential dilution 1:3 to reach 10 test points) in a 96 well costar clear plate [Costar # 3365], mix several times. Then incubate the plate at RT for 30 min. 3. Prepare Gastrin and ATP working solution in kinase reaction buffer as follows: Prepare 4 μM Gastrin and 16 μM ATP working solution
Use Biomek FX to add 20 μl ATP and Gastrin working solution to the assay plate to start reaction, incubate the plate at RT for 1 h. 4. Transfer 5 μL reaction product at the end of 1 h into 80 μL HTRF buffer in black plate [Costar # 3356], read on Discover after 30 min incubation.

Point of comparison: `Cn1c(Nc2cccc(F)c2)ncc(-c2ccc(Oc3ccnc(NC(=S)N4CCCC4)c3)cn2)c1=O` [Example 26, N-(4-(6-(2-(3-fluorophenylamino)-1-methyl-6-oxo-1,6-dihydropyrimidin-5-yl)pyridin-3-yloxy)pyridin-2-yl)pyrrolidine-1-carbothioamide], Ki 0.03 µM. Against it:
- Cn1c(Nc2ccccc2)ncc(-c2ccc(Oc3ccnc(NC(=O)N4CCCC4)c3)cn2)c1=O [Example 1, N-(4-(6-(1-methyl-6-oxo-2-(phenylamino)-1,6-dihydropyrimidin-5-yl)pyridin-3-yloxy)pyridin-2-yl)pyrrolidine-1-carboxamide] — 2.7-fold lower, 0.011 µM
- Cn1c(Nc2ccccc2F)ncc(-c2ccc(Oc3ccnc(NC(=S)N4CCCC4)c3)cn2)c1=O [Example 3, N-(4-(6-(2-(2-fluorophenylamino)-1-methyl-6-oxo-1,6-dihydropyrimidin-5-yl)pyridin-3-yloxy)pyridin-2-yl)pyrrolidine-1-carbothioamide] — 3.7-fold higher, 0.11 µM
- Cn1c(Nc2ccccc2)ncc(-c2ccc(Oc3ccnc(NC(=O)N4CCOCC4)c3)cn2)c1=O [Example 6, N-(4-(6-(1-methyl-6-oxo-2-(phenylamino)-1,6-dihydropyrimidin-5-yl)pyridin-3-yloxy)pyridin-2-yl)morpholine-4-carboxamide] — 1.9-fold higher, 0.057 µM
- CN1CCN(C(=O)Nc2cc(Oc3ccc(-c4cnc(Nc5ccccc5)n(C)c4=O)nc3)ccn2)CC1 [Example 7, 4-methyl-N-(4-(6-(1-methyl-6-oxo-2-(phenylamino)-1,6-dihydropyrimidin-5-yl)pyridin-3-yloxy)pyridin-2-yl)piperazine-1-carboxamide] — 2.9-fold higher, 0.087 µM
- Cn1c(Nc2ccc(F)cc2)ncc(-c2ccc(Oc3ccnc(NC(=O)N4CCCC4)c3)cn2)c1=O [Example 10, N-(4-(6-(2-(4-fluorophenylamino)-1-methyl-6-oxo-1,6-dihydropyrimidin-5-yl)pyridin-3-yloxy)pyridin-2-yl)pyrrolidine-1-carboxamide] — 5-fold lower, 0.006 µM
- Cc1noc(-c2cccc(Nc3nccc(Oc4ccc(-c5cnc(Cc6ccccc6)n(C)c5=O)cc4F)n3)c2)n1 [Example 13, 2-benzyl-5-(3-fluoro-4-(2-(3-(3-methyl-1,2,4-oxadiazol-5-yl)phenylamino)pyrimidin-4-yloxy)phenyl)-3-methylpyrimidin-4(3H)-one] — higher, > 20 µM
- CNc1nccc(Oc2ccc(-c3cnc(Cc4ccccc4)n(C)c3=O)cc2F)n1 [Example 14, 2-benzyl-5-(3-fluoro-4-(2-(methylamino)pyrimidin-4-yloxy)phenyl)-3-methylpyrimidin-4(3H)-one] — 78-fold higher, 2.34 µM
- CCn1c(Nc2ccc(F)cc2)ncc(-c2ccc(Oc3ccnc(NC(=O)N4CCC4)c3)c(F)c2)c1=O [Example 21, N-(4-(4-(1-ethyl-2-(4-fluorophenylamino)-6-oxo-1,6-dihydropyrimidin-5-yl)-2-fluorophenoxy)pyridin-2-yl)azetidine-1-carboxamide] — 2.5-fold lower, 0.012 µM
- Cn1c(Nc2cccc(F)c2)ncc(-c2ccc(Oc3ccnc(NC(=O)N4CCCC4)c3)cn2)c1=O [Example 25, N-(4-(6-(2-(3-fluorophenylamino)-1-methyl-6-oxo-1,6-dihydropyrimidin-5-yl)pyridin-3-yloxy)pyridin-2-yl)pyrrolidine-1-carboxamide] — 2.7-fold lower, 0.011 µM
